According to publication PMC5500575, “Identification of Histamine H3 Receptor Ligands Using a New Crystal Structure Fragment-based Method” (Scientific Reports, 2017):
Entries after “also recorded” stand apart in the source; their conditions may differ.

Experiments:
H3 receptor = molecular target: H3 receptor; set-up: method as in ChEMBL [64]; conditions: known H3 ligand; ref ChEMBL [64]; cited from earlier work
[1] = molecular target: T1, human histamine H3 receptor (Homo sapiens, UniProt Q9Y5N1); test: IP-One (HTRF IP1 accumulation) assay, H3 receptor co-expressed with chimeric Gqi5 in tsA201 cells; type: cell-based; conditions: antagonist mode; for Result of first pharmacological assaying (pharmacophore screening hits): 20 µM compound, EC80 histamine; for IC50 / pIC50 ± SEM: in the presence of EC80 of histamine
T1 construct: expressed in transfected cells; host or cells: tsA201 cells (transformed HEK-293), transient transfection
Method: Human tsA201 cells, a transformed HEK-293 cell line[70], were cultivated in Dulbecco’s Modified Eagle’s Medium (DMEM) with GlutaMAX, supplemented with 10% foetal bovine serum, penicillin 100 U/ml and streptomycin 100 µg/ml. Subconfluent cells grown in a 100 mm dish were transfected with 5 μg DNA using the Polyfect transfection reagent using the protocol of the manufacturer (Qiagen, West Sussex, UK), however with half of the recommended PolyFect volumes. Co-transfections (ratio 4:1) were performed with either constructs expressing the human histamine H3 receptor together with an empty vector and chimeric G protein Gqi5, respectively.
We applied the highly sensitive high-throughput homogeneous time-resolved fluorescence (HTRF) technology[71] for detection of IP-One generation using the Cisbio IP-One Tb assay kit, exactly as previously described. In brief, on the day of assay, ligand solutions were prepared in ligand buffer (Hank’s Balanced Salt Solution (HBSS) containing 20 mM HEPES pH 7.4, 1 mM CaCl2, 1 mM MgCl2, 40 mM LiCl)) and added to the wells of a 384-well OptiPlate (PerkinElmer, Waltham, USA) in triplicates. When testing for antagonist activity the ligand buffer was supplemented with an EC80 concentration of histamine, and we used a final compound concentration of 20 µM and 2 µM for the first (virtual hits) and second (analogues) screening, respectively. Cell suspensions were added and incubated with ligands for 1 hour, followed by the addition of detection solution (IP-One Tb conjugate & Lysis Buffer +2.5% anti-IP1 cryptate Tb conjugate +2.5% IP1-d2 conjugate. 38:1:1) and incubation in the dark for one hour at room temperature. The plate was read on an EnVision 2104 Multilabel Reader (PerkinElmer) by exciting the wells with light of 340 nm and measuring the emission at 615 nm and 665 nm. The fluorescence resonance energy transfer ratios (665 nm/615 nm) were converted to IP1 concentrations by interpolating values from an IP1 standard curve generated from an IP1 calibration stock, provided by the manufacturer (Cisbio).
Data were analysed using GraphPad Prism 6 (GraphPad Software, San Diego, CA, USA). Concentration-response curves were fitted by nonlinear regression to equation (1):1 R=Rmax+Rmax−Rmin/1+10^(logIC50−X)∗nH where X is the logarithm of the concentration, R is the response, R max is the maximal response, R min is the minimal response, IC50 is the concentration giving half-maximum reduction of the response, and nH is the Hill coefficient, which describes the steepness of the curve. IP-One assay results are reported either as raw FRET in arbitrary units, as IP1 concentration (nM) or as fold over basal (normalized to the basal level of IP1 in ligand buffer [IP1]/[IP1]basal). The Z′-factors were calculated using equation (2):2 Z′=1−3σc++3σc−/|µc+−µc−|

human H3 receptor = molecular target: T2, human H3 receptor (Homo sapiens, UniProt Q9Y5N1); test: [3H]N-α-methylhistamine radioligand competition binding assay; conditions: for Ki / Affinity (pKi): 0.3 nM [3H]N-α-methylhistamine; for Ki: Cheng-Prusoff with Kd 0.15 nM; for Affinity (pKi): ± SEM; for Competition with [3H]N-α-methylhistamine binding (in words): 0.3 nM radioligand, NSB defined with 10 µM histamine; for Change of potency upon repeated experimentation: possibly due to compound breakdown
T2 construct: expressed in transfected cells; host or cells: HEK-293T cells, membranes
Method: HEK-239T cells were grown to 70% confluency in 150 mm cell culture dishes and transfected with 8 µg human H3 receptor using the Polyfect transfection reagent as previously described. After 48 hours, cells were washed from each cell culture dish with Dulbecco’s phosphate buffered saline and harvested using a cell scraper. The resulting cell suspension was then centrifuged and resuspended in 500 µL lysis buffer (50 mM Tris-HCl, pH 7.4). The cell lysate was centrifuged at 16,000 g for 20 minutes at 4 °C. The resultant membrane pellets were stored at −80 °C until use. Each pellet was resuspended in 500 µL binding buffer (50 mM Tris-HCl, 0.5 mM EDTA, pH 7.4), homogenized and centrifuged at 16,000 g for 15 minutes at 4 °C, and subsequently resuspended in 15 mL of binding buffer to a desired protein concentration of approximately 0.2 mg/mL as determined by the method of Bradford[73]. The membrane solution (30 µg protein per well) was incubated for 90 minutes in 250 µL of binding buffer, with or without compound, together with 0.3 nM [^3H]N-α-methylhistamine at room temperature. Non-specific binding was defined as the radioligand bound to membrane solution incubated with 10 µM histamine. The binding reaction was terminated by rapid filtration through Whatman GF/C unifilters (PerkinElmer), and washed four times with ice-cold wash buffer (50 mM Tris-HCl, 10 mM MgCl2, 0.1 mM EDTA, pH 7.4) using a 96-well Packard FilterMate cell harvester (PerkinElmer). Finally, Microscint 0 scintillation liquid (PerkinElmer) was added to the dried filters, and the radioactivity quantified in a Packard TopCount NXT microplate Scintillation Counter (PerkinElmer).
The binding data was fitted by nonlinear regression to equation (3):3 Y=Ymax+Ymax−Ymin/1+10^X−logIC50 where X is the logarithm of the concentration, Y is the specific binding, Y max is the maximal specific binding, Y min is the minimal specific binding, and IC50 is the concentration giving half-maximum reduction in specific binding.

mouse H3 receptor = conditions: Gqi5, Ca2+ release; cited from earlier work

T1 sequence (Q9Y5N1 whole entry): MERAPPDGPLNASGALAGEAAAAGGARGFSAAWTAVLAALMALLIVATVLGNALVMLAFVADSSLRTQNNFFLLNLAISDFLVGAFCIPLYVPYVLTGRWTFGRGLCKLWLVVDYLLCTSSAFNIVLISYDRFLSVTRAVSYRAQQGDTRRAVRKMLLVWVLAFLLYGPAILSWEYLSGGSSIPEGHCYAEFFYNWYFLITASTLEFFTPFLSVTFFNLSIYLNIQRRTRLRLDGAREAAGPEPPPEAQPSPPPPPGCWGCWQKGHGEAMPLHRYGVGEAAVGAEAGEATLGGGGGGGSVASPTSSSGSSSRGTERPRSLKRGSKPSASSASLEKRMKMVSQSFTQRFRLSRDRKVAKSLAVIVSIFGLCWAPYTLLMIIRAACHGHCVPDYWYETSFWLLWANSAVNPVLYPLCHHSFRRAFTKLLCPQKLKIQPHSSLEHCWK
T2 sequence (Q9Y5N1 whole entry): as above

Structure (SMILES) | Affinity (pKi) of most similar ChEMBL ligand (H3 receptor) | Result of first pharmacological assaying (pharmacophore screening hits) [1] | IC50 [1] [µM] | pIC50 ± SEM [1] | Ki (human H3 receptor) [µM] | Affinity (pKi) (human H3 receptor) | other results
OC1(c2ccccn2)CCCN(c2nnc(N3CCC(N4CCCCC4)CC3)s2)C1 (centres unmarked) [ChEMBL 2048591] | 7.3 | – | – | – | – | – | –
COc1cccc(OCCN2CCC(N3CCCCC3)CC2)c1 [ChEMBL 460313] | 6.9 | – | – | – | – | – | –
CN(C)CCCNc1c2c(nc3ccccc13)CCCCC2 [ChEMBL 65849] | 8.0 | – | – | – | – | – | –
Cc1ccc2c(c1)c1c3n2CCN(CC(O)CNCc2ccccc2)C3CCC1 (centres unmarked) [Compound 42] | – | antagonist hits | 42.1 | 4.38±0.11 | 14.8 | 4.83±0.08 | Competition with [3H]N-α-methylhistamine binding (in words) (human H3 receptor): unable to outcompete radiolabeled ligand to NSB levels; also recorded: unable to lower the binding of [^3H]N-α-methylhistamine to non-specific binding levels
CN1CCC(C(=O)c2cc3cc(Cl)ccc3[nH]2)CC1 [ChEMBL 186456] | 5.5 | – | – | – | – | – | –
c1ccc2c(c1)nc1n(CCN3CCCCC3)cnn21 [ChEMBL 1923529] | 6.2 | – | – | – | – | – | –
CCCCN1CN(CCCN(C)c2ccccc2)Cn2c1nc1ccccc12 [Compound 68] | – | – | 22 | 4.66±0.20 | > 300 | – | Competition with [3H]N-α-methylhistamine binding (in words) (human H3 receptor): little to no effect on radiolabeled ligand binding; also recorded: unable to compete with binding
Cc1nccn1-c1ccc(CNCc2cccc(C#N)c2)cc1F [Compound 20] | – | borderline activity | – | – | 4.24 | 5.37±0.12 | Change of potency upon repeated experimentation (human H3 receptor): continued decrease in potency observed upon repeated experimentation
CCN(Cc1nc2ccccc2[nH]1)CC1CCCN(CCc2cccc(OC)c2)C1 (centres unmarked) [Compound 9] | – | seemingly active | – | – | 1.75 | 5.76±0.25 | Change of potency upon repeated experimentation (human H3 receptor): continued decrease in potency observed upon repeated experimentation
CCN1CCNC(=O)C1CC(=O)N1CCc2[nH]c3c(C)cccc3c2C1 (centres unmarked) [Compound 64] | – | – | 261 | 3.58±0.17 | 86.7 | 4.06±0.11 | –
NCCc1c[nH]cn1 [histamine] | – | – | – | – | – | – | EC50 (mouse H3 receptor): 0.0218 µM
Cc1ccc2c(c1)c1c3n2CCN(CC(O)CN2CCN(C)CC2)C3CCC1 (centres unmarked) [Compound 75] | – | – | 121 | 3.92±0.18 | 4.82 | 5.32±0.04 | –
Cc1ccc(CN2CCCN(C(=O)CCSCc3cn4ccccc4n3)CC2)cc1 [Compound 44] | – | seemingly active | – | – | 2.82 | 5.55±0.06 | Competition with [3H]N-α-methylhistamine binding (in words) (human H3 receptor): unable to outcompete radiolabeled ligand to NSB levels; also recorded: unable to lower the binding of [^3H]N-α-methylhistamine to non-specific binding levels
CCCCN1CN(CCCN2CCCCC2)Cn2c1nc1ccccc12 [Compound 35] | – | antagonist hits | 3.3 | 5.5 ± 0.27 | 1.75 | 5.76 ± 0.05 | –
CNCc1cc(C#CCCN2CCNC(=O)C2)ccc1Oc1ccc(SC)cc1 [ChEMBL 237514] | 6.1 | – | – | – | – | – | –
Cc1nc(N2CCN(c3ncc[nH]c3=O)CC2)c2sccc2n1 [Compound 21] | – | antagonist hits | 20.9 | 4.68±0.10 | > 50 | – | Competition with [3H]N-α-methylhistamine binding (in words) (human H3 receptor): little to no effect on radiolabeled ligand binding; also recorded: unable to compete with binding
